{"source": "patent US20110124683A1", "about": "“Use of CRTH2 Antagonist Compounds” (Oxagen Limited, priority 2007, published 2011)", "key": {"serum IgE": {"system": "serum IgE", "assay": "Measurement of serum IgE in mild to moderate asthmatics", "format": "in vivo, human", "text": "The effect of the CRTH2 antagonist Compound 1 compared to placebo was studied in mild to moderate asthmatics with an FEV1 of 60-80% of predicted and requiring only short acting inhaled β2-adrenergic agonists for symptomatic control.\nBlood was collected for measurement of serum IgE at the beginning of the study and after 4 weeks of dosing with Compound 1 or placebo. Total serum IgE was quantified using fluorescent immunoassay using the Phadia CAP system."}, "[1]": {"system": "human subjects with allergic rhinitis", "assay": "Vienna Challenge Chamber study (allergen challenge, symptom scores)", "format": "in vivo", "conditions": "for reduction in total nasal symptom score compared to placebo / reduction in total eye symptom score compared to placebo: oral, both patient groups combined; for reduction in total nasal symptom score compared to placebo: FIG. 1A; for reduction in total eye symptom score compared to placebo: FIG. 1B", "text": "The study was a randomised, double blind, placebo controlled, two way crossover evaluation of Compound 1, given orally for eight days. There was a screening period of one week and a washout period of three weeks between the two treatment periods. There was a follow up one week after the last dose of study drug. The group of patients who received the study drug for the first treatment period and placebo for the second was designated group A, while the group of patients who received placebo for the first treatment period and the study drug for the second treatment period was designated group B.\nThe subjects underwent a complete screening assessment to determine a baseline response to allergens. This screening assessment took place one week prior to the start of dosing. • Subjects commenced dosing with Compound 1 or placebo on Day 1 (visit 2 or visit 5) of each treatment period of the study. […] Subjects took each dose (2 capsules in the morning and 2 capsules in the evening) as soon as they had finished breakfast and their evening meal respectively.\nSubjects reported back to the clinic on Day 2 of each treatment period for a 6 hour allergen challenge. The following measurements were obtained: • Total nasal symptom score (TNSS) (obstruction, rhinorrhoea, itch, sneeze) with each symptom scored on a categorical scale from 0 to 3 pre-challenge, every 15 mins from 0 to 6 h post-start of challenge • Eye symptom score (watery eyes, itchy eyes, red eyes) with each symptom scored on a categorical scale from 0 to 3 pre-challenge, every 15 mins from 0 to 6 h post-start of challenge • Other symptoms (cough, itchy throat, itchy ears) with each symptom scored on a categorical scale from 0 to 3 pre-challenge and every 15 mins from 0 to 6 h post-start of challenge\nSubjects reported back to the clinic on Day 8 of each treatment period for a 6 hour allergen challenge and the measurements obtained on Day 2 were repeated.\nA final follow-up visit was conducted one after the last dose of test article in Treatment Period 2."}, "Human Th2 cells": {"system": "Human Th2 cells", "assay": "Apoptosis challenge test (Annexin V-PE/PI flow cytometry)", "format": "cell-based", "conditions": "for IC50: Homo sapiens, 100 nM PGD2, absence of IL-2, 16 hrs, read-out: IC50 to the rescuing function of PGD2", "method": "Human Th2 cells were treated with 50 U/ml IL-2 or various concentrations of PGD2 in the absence of IL-2 for 16 hrs. The cells were stained with Annexin V-PE/PI and then analysed by FACSArray flow cytometer.\nHuman Th2 cells were treated in the absence of IL-2 with a medium containing 100 nM PGD2 and various concentrations of CRTH2 antagonistic compounds (Compounds 1, 2, 3, 4 and 5) for 16 hrs. The cells were stained with Annexin V-PE/PI and then analysed by FACSArray flow cytometer."}, "CRTH2 receptor": {"target": "T1, CRTH2 receptor (Homo sapiens, UniProt Q9Y5Y4)", "T1 construct": "expressed in transfected cells; host or cells: Chinese Hamster Ovary (CHO) cells", "T1 sequence (Q9Y5Y4 1-395)": "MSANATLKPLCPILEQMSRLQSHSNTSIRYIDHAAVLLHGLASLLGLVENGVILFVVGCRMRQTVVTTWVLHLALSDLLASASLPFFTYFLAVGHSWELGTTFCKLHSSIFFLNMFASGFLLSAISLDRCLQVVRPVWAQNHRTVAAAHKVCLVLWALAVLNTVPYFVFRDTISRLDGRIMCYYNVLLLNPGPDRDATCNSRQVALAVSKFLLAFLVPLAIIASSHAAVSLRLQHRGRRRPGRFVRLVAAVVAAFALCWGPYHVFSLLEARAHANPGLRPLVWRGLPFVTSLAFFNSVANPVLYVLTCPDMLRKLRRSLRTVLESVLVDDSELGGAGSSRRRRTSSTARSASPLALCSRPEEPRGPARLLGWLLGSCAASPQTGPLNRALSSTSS", "assay": "Calcium mobilisation assay in CHO/CRTH2 cells", "format": "cell-based", "conditions": "n=3, read-out: EC50, increase in intracellular Ca2+ mobilisation", "method": "Chinese Hamster Ovary cells were transfected with CRTH2 receptors (CHO/CRTH2) and were maintained in culture in a humidified atmosphere at 37° C. (5% CO2) in Minimum Essential Medium (MEM) supplemented with 10% foetal bovine serum, 2 mM glutamine, and 1 mg ml^−1 active G418. The cells were passaged every 2-3 days. For radioligand binding assay, cells were prepared in triple-layer flasks or in 175 cm^2 square flasks (for membrane preparation). For calcium mobilisation assay, cells were grown in a 96 well plate 24 h prior to the assay at a density of 80,000 cells per well.\nCells were seeded onto poly-D-lysine coated 96-well plates at a density of 80,000 cells per well and incubated at 37° C. overnight to allow the cells to adhere. Cells were washed twice with HBSS and incubated for 1 h at 37° C. in 100 μl HBSS and 100 μl calcium-3-dye (Molecular Devices), supplemented with 4 mM probenecid. Changes in fluorescence were monitored over a 50 s time course with agonist addition at 17 s using a Flexstation (Molecular Devices)."}}, "data": [{"smiles": "Cc1c(Cc2ccc3ccccc3n2)c2cc(F)ccc2n1CC(=O)O", "note": "[Compound 1, (5-Fluoro-2-methyl-3-quinolin-2-ylmethyl-indol-1-yl)-acetic acid]", "values": [{"measurement": "median reduction in IgE at endpoint", "setting": "serum IgE; after 4 weeks of dosing, p=0.033 vs placebo, Wilcoxon test", "value": "−17.0", "unit": "IU/mL"}, {"measurement": "reduction in serum IgE", "setting": "serum IgE; after treatment for 4 weeks, FIG. 3", "value": 41, "unit": "%"}, {"measurement": "duration of effect on nasal symptom score after the last treatment", "setting": "[1]; Group A, on placebo after 8 days of drug and three week washout", "value": "more than 4 weeks"}, {"measurement": "reduction in total nasal symptom score compared to placebo", "setting": "[1]; after 2 days of dosing", "value": 23, "unit": "%"}, {"measurement": "reduction in total eye symptom score compared to placebo", "setting": "[1]; after 2 days of dosing", "value": 45, "unit": "%"}, {"measurement": "reduction in total nasal symptom score compared to placebo", "setting": "[1]; after 8 days of dosing", "value": 37, "unit": "%"}, {"measurement": "reduction in total eye symptom score compared to placebo", "setting": "[1]; after 8 days of dosing", "value": 61, "unit": "%"}, {"measurement": "reduction in Total Nasal Symptom Score (0-6 hr)", "setting": "[1]; remaining 22 days after the last dose", "value": 36, "unit": "%"}, {"measurement": "reduction in Total Nasal Symptom Score (0-6 hr)", "setting": "[1]; remaining 28 days after the last dose", "value": 38, "unit": "%"}, {"measurement": "IC50", "setting": "Human Th2 cells", "value": "< 100", "unit": "nM"}]}, {"smiles": "Cc1c(Cc2ccccc2S(=O)(=O)c2ccccc2)c2cc(F)ccc2n1CC(=O)O", "note": "[Compound 2, (3-{[2-(Benzenesulfonyl)phenyl]methyl}-5-fluoro-2-methylindol-1-yl)-acetic acid]", "values": [{"measurement": "IC50", "setting": "Human Th2 cells", "value": "< 100", "unit": "nM"}]}, {"smiles": "Cc1c(Cc2cc3ccccc3cc2S(C)(=O)=O)c2cc(F)ccc2n1CC(=O)O", "note": "[Compound 3, {5-Fluoro-3-[(3-methanesulfonylnaphthalen-2-yl)methyl]-2-methylindol-1-yl}-acetic acid]", "values": [{"measurement": "IC50", "setting": "Human Th2 cells", "value": "< 100", "unit": "nM"}]}, {"smiles": "Cc1c(Cc2cccnc2S(=O)(=O)c2ccccc2)c2cc(F)ccc2n1CC(=O)O", "note": "[Compound 4, (3-{[2-(Benzenesulfonyl)pyridin-3-yl]methyl}-5-fluoro-2-methylindol-1-yl)-acetic acid]", "values": [{"measurement": "IC50", "setting": "Human Th2 cells", "value": "< 100", "unit": "nM"}]}, {"smiles": "CCCCC[C@H](O)/C=C/[C@H]1C(=O)C[C@H](O)[C@@H]1C/C=C\\CCCC(=O)O", "note": "[PGD2, prostaglandin D2, reference compound]", "values": [{"measurement": "EC50", "setting": "CRTH2 receptor", "value": "2.4 ± 0.5", "unit": "nM"}, {"measurement": "effect on apoptosis of Th2 cells", "setting": "Human Th2 cells; absence of IL-2, 16 hrs", "value": "anti-apoptotic effect"}]}, {"smiles": "Cc1c(S(=O)(=O)c2ccc(Cl)cc2)c2cc(F)ccc2n1CC(=O)O", "note": "[[5-Fluoro-3-(4-chloro-benzenesulfonyl)-2-methyl-indol-1-yl]-acetic acid, reference compound]", "values": [{"measurement": "IC50", "setting": "Human Th2 cells", "value": "204 ± 160", "unit": "nM"}]}]}
